Experimental data taken from PubChem BioAssay (NCI).
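Exposure lasted 48 hours, with cells grown in 96-well plates and compounds tested at five concentrations. At the GI50, growth is halved. At the TGI there is no net growth.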 Where a SMILES comes first, the peptide text is derived from it. The star is where a group is joined. Boc = CC(C)(C)OC(=O)*; tBu = CC(C)(C)*

Legend:
Assay in all cases: growth of human tumour cells (NCI), 48 h
OVCAR-5 ovarian = system: OVCAR-5 ovarian
MDA-MB-435 = system: MDA-MB-435
NCI-H226 lung = system: NCI-H226 lung
UACC-62 melanoma = system: UACC-62 melanoma
SK-OV-3 ovarian = system: SK-OV-3 ovarian
UACC-257 melanoma = system: UACC-257 melanoma
SNB-75 CNS = system: SNB-75 CNS
NCI-H23 lung = system: NCI-H23 lung
MALME-3M melanoma = system: MALME-3M melanoma
CCRF-CEM leukemia = system: CCRF-CEM leukemia

Compound	TGI (OVCAR-5 ovarian)	TGI (MDA-MB-435)	TGI (NCI-H226 lung)	TGI (UACC-62 melanoma)	TGI (SK-OV-3 ovarian)	TGI (UACC-257 melanoma)	TGI (SNB-75 CNS)	TGI (NCI-H23 lung)	TGI (MALME-3M melanoma)	TGI (CCRF-CEM leukemia)	GI50 (OVCAR-5 ovarian)	GI50 (MDA-MB-435)	GI50 (NCI-H226 lung)	GI50 (UACC-62 melanoma)	GI50 (SK-OV-3 ovarian)	GI50 (UACC-257 melanoma)	GI50 (SNB-75 CNS)	GI50 (NCI-H23 lung)	GI50 (MALME-3M melanoma)	GI50 (CCRF-CEM leukemia)
CCN(CCCl)c1cc(CN(C)C)cc(NC(=O)c2cc(C(=O)Nc3cc(CN(C)C)cc(N(CC)CCCl)c3)n(C)n2)c1	9.36 µM	1.2 µM	4.16 µM	2.36 µM	3.3 µM	2.89 µM	2.55 µM	3.04 µM	2.86 µM	0.299 µM										
Nc1nc2c(c(=O)[nH]1)NC(CCNc1ccc(C(=O)O)cc1)CN2 (stereo not given)	> 100 µM	> 100 µM	> 100 µM	> 100 µM	> 100 µM	> 100 µM	> 100 µM	> 100 µM	> 100 µM	> 100 µM										
CN(CCCNC(=O)c1c2ccc3ccccc3c2nn1C)CCCNC(=O)c1c2ccc3ccccc3c2nn1C	25.4 µM	6.09 µM	31.1 µM	3.76 µM	28.4 µM	3.57 µM	21.4 µM	29.4 µM	8.71 µM	23.6 µM										
O=C1CC(=O)NC(=NN2C(=O)/C(=C/c3ccc(Cl)cc3)N=C2c2ccccc2)N1	30.2 µM	29.1 µM	31.5 µM	25.6 µM	51.8 µM	42 µM	60.2 µM	31.5 µM	33.4 µM	24.8 µM										
CC1(CCCCO)C=CC(S(=O)(=O)c2ccccc2)CC1 (stereo not given)	17.5 µM	21.8 µM	9.03 µM	18.3 µM	22.7 µM	10.9 µM	13.3 µM	17.8 µM	12.1 µM	11.2 µM										
CO[C@]12C[C@@H](CNC(=O)c3cc(Br)c[nH]3)O[C@H]1NC(=O)N2	> 100 µM	> 100 µM	> 100 µM	> 100 µM	> 100 µM	> 100 µM	> 100 µM	> 100 µM	> 100 µM	> 100 µM										
COc1ccc(/C=N/n2c(Cc3ccccc3)n[nH]c2=O)cc1	> 100 µM	> 100 µM	> 100 µM	> 100 µM	> 100 µM	> 100 µM	> 100 µM	> 100 µM	> 100 µM	> 100 µM										
Nc1ncnc2c1N=C(c1ccccc1)CC(c1ccccc1)N2 (stereo not given)	> 100 µM	> 100 µM	> 100 µM	> 100 µM	> 100 µM	> 100 µM	> 100 µM	> 100 µM	> 100 µM	> 100 µM										
CC(N)=O.[Cl][Pt][Cl].[NH-]c1ccn(C2OC(CO)C(O)C2O)c(=O)n1 (stereo not given)	> 100 µM	> 100 µM	> 100 µM	> 100 µM	> 100 µM	> 100 µM	> 100 µM	> 100 µM	> 100 µM	> 100 µM										
Cc1cc(NS(=O)(=O)c2ccc(NC(=O)c3ccc4nc5ccccc5c(Nc5ccc(S(=O)(=O)Nc6cc(C)on6)cc5)c4c3)cc2)no1	> 50 µM	> 50 µM	> 50 µM	> 50 µM	> 50 µM	> 50 µM	> 50 µM	> 50 µM	> 50 µM	> 50 µM										
CC1=CC(=O)c2c(O)c3c(c(O)c2C1=O)C1C(O)C(C3=O)C23C(=O)c4c(O)c(C)cc(O)c4C(O)=C2C(=O)CC(O)C13 (stereo not given)	9.08 µM	2.81 µM	6.56 µM	3.24 µM	6.86 µM	3.5 µM	9.1 µM	14.1 µM	2.91 µM	> 100 µM										
O=S(=O)(c1ccc2ccccc2c1)N1CCN(S(=O)(=O)c2ccc3ccccc3c2)CC1	> 100 µM	> 100 µM	> 100 µM	> 100 µM	> 100 µM	> 100 µM	60 µM	> 100 µM	> 100 µM	> 100 µM										
Cc1cc(/N=C/c2ccc(Cl)cc2)n(-c2ccccc2)n1	> 100 µM	> 100 µM	> 100 µM	> 100 µM	> 100 µM	> 100 µM	> 100 µM	> 100 µM	> 100 µM	> 100 µM										
CC(C)CCCC(C)[C@H]1CCC2[C@@H]3CCC4Cc5nc6c(nc5C[C@]4(C)C3CC[C@@]21C)CC1CC[C@@H]2C(CC[C@@]3(C)C2CC[C@@H]3O)[C@@]1(C)C6 (stereo not given in full)	> 100 µM	> 100 µM	> 100 µM	> 100 µM	> 100 µM	> 100 µM	> 100 µM	> 100 µM	> 100 µM	> 100 µM										
CCN(CC)C(=S)SSCCO	31.5 µM	31.7 µM	> 100 µM	29.2 µM	> 100 µM	48.6 µM	28 µM	31.5 µM	35 µM	45.2 µM	17.7 µM	15.6 µM	> 100 µM	15.3 µM	73.9 µM	19.1 µM	14.8 µM	16.4 µM	17.9 µM	14.5 µM
CC(OC(C)(C)C)C(NC(=O)C(N)CCCCNC(=O)OC(C)(C)C)C(=O)NC(Cc1ccccc1)C(=O)O (stereo not given) (H-Lys(Boc)-Thr(tBu)-Phe-OH; configuration not given here)	> 100 µM	> 100 µM	> 100 µM	> 100 µM	> 100 µM	> 100 µM	> 100 µM	> 100 µM	> 100 µM	> 100 µM										
